The target in assay [1] is T1, Serine/threonine-protein kinase D2 (Homo sapiens) (UniProt Q9BZL6).
T1 sequence (whole entry): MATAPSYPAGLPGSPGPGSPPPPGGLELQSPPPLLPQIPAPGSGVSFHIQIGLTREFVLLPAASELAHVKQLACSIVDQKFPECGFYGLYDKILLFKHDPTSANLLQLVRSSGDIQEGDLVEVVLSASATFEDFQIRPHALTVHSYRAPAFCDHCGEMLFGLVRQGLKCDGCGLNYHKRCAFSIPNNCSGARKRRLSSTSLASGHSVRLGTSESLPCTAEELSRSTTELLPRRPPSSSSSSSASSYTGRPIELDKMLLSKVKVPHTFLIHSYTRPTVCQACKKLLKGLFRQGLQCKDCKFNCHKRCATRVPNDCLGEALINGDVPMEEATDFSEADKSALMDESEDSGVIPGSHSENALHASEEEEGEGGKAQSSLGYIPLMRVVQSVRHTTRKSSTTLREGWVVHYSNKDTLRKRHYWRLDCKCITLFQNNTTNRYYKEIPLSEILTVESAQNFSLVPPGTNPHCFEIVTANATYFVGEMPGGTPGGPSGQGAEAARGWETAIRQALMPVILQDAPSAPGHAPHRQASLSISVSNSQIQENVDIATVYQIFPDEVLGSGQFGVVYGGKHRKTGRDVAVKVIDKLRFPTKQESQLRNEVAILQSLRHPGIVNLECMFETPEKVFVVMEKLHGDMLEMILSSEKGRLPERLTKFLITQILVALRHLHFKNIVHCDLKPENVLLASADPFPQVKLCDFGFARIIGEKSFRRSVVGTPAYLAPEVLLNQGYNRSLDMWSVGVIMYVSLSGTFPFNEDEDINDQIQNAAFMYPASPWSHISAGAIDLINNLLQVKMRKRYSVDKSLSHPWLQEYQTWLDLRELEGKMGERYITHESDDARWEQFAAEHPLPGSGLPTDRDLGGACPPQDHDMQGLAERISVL
As to the kind of experiment: Selectivity interaction (Kinase panel (Z-LYTE Assay)) EUB0001632a PRKD2. As to conditions: at 10 µM.

The target in assay [2] is Delta-type opioid receptor (Homo sapiens, UniProt P41143). As to the kind of experiment: Selectivity interaction (Panel of non-epigenetic targets (kinases, GPCRs, ion channels, and transporters, Eurofins) ) EUB0000271b OPRD1. As to conditions: at 1 µM.
Assay [3] has as its target Protein arginine N-methyltransferase 5 (Homo sapiens, UniProt O14744). As to conditions: at 1 µM.
The target in a further assay is D(2) dopamine receptor (Homo sapiens, UniProt P14416). Nature of the assay: Selectivity interaction (Panel of kinases, GPCRs, ion channels and transporters (enzymatic assay)) EUB0000266bCl DRD2.
For assay [4], the target named is Mitogen-activated protein kinase 14 (Homo sapiens, UniProt Q16539). As to the kind of experiment: Selectivity interaction (Kinase panel (Invitrogen)) EUB0000639a MAPK14. As to conditions: at 200 nM.
In assay [5] the target is T2, Serine/threonine-protein kinase TAO1 (Homo sapiens) (UniProt Q7L7X3).
T2 sequence (whole entry): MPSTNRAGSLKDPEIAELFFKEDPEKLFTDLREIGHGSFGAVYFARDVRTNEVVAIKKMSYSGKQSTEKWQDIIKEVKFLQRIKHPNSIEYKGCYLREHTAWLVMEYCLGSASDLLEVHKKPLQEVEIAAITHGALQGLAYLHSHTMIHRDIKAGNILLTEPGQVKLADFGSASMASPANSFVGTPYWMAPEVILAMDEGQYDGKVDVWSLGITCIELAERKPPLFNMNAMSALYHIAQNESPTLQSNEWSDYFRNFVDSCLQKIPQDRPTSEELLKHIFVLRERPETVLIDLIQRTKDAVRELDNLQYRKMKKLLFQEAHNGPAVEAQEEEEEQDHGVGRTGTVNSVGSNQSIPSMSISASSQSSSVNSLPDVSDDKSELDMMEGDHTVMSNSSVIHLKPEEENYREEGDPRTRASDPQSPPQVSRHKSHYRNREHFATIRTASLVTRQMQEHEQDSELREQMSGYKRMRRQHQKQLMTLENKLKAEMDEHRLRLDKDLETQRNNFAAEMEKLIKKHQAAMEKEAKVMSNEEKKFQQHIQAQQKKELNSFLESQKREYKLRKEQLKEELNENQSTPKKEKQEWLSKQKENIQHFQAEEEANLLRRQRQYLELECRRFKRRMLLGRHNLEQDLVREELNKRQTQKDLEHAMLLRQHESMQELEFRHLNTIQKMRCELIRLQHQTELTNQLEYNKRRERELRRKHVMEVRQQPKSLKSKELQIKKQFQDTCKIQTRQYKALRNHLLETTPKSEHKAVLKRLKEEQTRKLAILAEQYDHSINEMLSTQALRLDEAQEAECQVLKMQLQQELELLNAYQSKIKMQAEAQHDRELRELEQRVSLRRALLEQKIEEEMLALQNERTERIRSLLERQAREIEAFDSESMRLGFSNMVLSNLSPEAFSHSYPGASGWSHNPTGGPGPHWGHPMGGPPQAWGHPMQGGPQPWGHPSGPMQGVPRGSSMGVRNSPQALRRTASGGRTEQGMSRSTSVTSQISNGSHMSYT
Nature of the assay: Selectivity interaction (ActivX KiNativ screen (kinase selectivity in THP-1 cell lysates)) EUB0000639a TAOK1. As to conditions: lysate. Type of assay: subcellular.

For assay [6], the target named is Non-receptor tyrosine-protein kinase TYK2 (Homo sapiens, UniProt P29597). Nature of the assay: Selectivity interaction (ActivX KiNativ screen (kinase selectivity in THP-1 cell lysates)) EUB0000639a TYK2. Type of assay: subcellular. As to conditions: lysate, at 0.04 µM.
Assay [7] addresses MAP kinase-interacting serine/threonine-protein kinase 2 (Homo sapiens, UniProt Q9HBH9).
Assay [8] has as its target Serine/threonine-protein kinase MRCK gamma (Homo sapiens) (UniProt Q6DT37). Nature of the assay: Selectivity interaction (KinomeScan (DiscoverX)) EUB0001049a CDC42BPG. As to conditions: at 1 µM.
The target of assay [9] is STE20/SPS1-related proline-alanine-rich protein kinase (Homo sapiens) (UniProt Q9UEW8). As to the kind of experiment: Selectivity interaction (KinomeScan (DiscoverX)) EUB0000695a STK39. As to conditions: at 100 nM.
Assay [10] has as its system Mast/stem cell growth factor receptor Kit (Homo sapiens), P10721 [V560G]. As to the kind of experiment: Selectivity interaction (ProQinase) EUB0000171b KIT.
Assay [11] addresses Mitogen-activated protein kinase 6 (Homo sapiens) (UniProt Q16659). As to the kind of experiment: Selectivity interaction (KinomeScan (DiscoverX)) EUB0000618a MAPK6. As to conditions: at 10 µM.
The target of assay [12] is Mitogen-activated protein kinase kinase kinase 20 (Homo sapiens) (UniProt Q9NYL2). As to the kind of experiment: Selectivity interaction (KinomeScan (DiscoverX)) EUB0000618a MAP3K20. As to conditions: at 10 µM.
Assay [13] concerns the target Homeodomain-interacting protein kinase 3 (Homo sapiens, UniProt Q9H422). Nature of the assay: Selectivity interaction (Upstate Kinase Profiler service (Millipore)) EUB0000056c HIPK3. As to conditions: at 1 µM.

A word on the IC50: it is the concentration that inhibits the measured activity by half.

Chain of Mast/stem cell growth factor receptor Kit (Homo sapiens), P10721 [V560G] (P10721 whole entry V560G): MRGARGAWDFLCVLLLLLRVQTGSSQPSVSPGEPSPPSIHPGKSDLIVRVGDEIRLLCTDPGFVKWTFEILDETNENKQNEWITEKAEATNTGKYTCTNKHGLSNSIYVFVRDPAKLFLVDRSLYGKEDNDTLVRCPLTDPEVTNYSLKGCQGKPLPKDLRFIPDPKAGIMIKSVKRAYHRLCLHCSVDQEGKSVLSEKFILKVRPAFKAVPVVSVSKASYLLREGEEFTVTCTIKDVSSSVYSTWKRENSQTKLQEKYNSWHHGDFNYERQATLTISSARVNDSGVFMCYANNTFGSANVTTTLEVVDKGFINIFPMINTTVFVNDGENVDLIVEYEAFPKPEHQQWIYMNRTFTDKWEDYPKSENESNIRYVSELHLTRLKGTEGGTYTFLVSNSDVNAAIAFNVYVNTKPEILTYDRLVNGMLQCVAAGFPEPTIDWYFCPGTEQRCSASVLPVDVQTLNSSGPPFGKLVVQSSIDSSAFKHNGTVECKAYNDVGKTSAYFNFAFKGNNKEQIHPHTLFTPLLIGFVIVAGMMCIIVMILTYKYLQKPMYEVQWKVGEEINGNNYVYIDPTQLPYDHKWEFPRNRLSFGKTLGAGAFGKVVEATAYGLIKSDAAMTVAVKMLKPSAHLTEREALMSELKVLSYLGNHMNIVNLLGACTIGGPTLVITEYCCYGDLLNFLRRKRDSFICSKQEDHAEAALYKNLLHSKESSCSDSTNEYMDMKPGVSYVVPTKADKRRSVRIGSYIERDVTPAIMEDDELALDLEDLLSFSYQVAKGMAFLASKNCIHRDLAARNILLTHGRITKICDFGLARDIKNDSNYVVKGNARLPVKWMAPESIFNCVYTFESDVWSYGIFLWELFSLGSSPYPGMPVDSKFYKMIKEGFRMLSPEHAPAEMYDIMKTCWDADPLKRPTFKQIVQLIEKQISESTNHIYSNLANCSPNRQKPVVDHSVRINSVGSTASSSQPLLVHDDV
Chain of Homeodomain-interacting protein kinase 3 (Q9H422 whole entry, looked up): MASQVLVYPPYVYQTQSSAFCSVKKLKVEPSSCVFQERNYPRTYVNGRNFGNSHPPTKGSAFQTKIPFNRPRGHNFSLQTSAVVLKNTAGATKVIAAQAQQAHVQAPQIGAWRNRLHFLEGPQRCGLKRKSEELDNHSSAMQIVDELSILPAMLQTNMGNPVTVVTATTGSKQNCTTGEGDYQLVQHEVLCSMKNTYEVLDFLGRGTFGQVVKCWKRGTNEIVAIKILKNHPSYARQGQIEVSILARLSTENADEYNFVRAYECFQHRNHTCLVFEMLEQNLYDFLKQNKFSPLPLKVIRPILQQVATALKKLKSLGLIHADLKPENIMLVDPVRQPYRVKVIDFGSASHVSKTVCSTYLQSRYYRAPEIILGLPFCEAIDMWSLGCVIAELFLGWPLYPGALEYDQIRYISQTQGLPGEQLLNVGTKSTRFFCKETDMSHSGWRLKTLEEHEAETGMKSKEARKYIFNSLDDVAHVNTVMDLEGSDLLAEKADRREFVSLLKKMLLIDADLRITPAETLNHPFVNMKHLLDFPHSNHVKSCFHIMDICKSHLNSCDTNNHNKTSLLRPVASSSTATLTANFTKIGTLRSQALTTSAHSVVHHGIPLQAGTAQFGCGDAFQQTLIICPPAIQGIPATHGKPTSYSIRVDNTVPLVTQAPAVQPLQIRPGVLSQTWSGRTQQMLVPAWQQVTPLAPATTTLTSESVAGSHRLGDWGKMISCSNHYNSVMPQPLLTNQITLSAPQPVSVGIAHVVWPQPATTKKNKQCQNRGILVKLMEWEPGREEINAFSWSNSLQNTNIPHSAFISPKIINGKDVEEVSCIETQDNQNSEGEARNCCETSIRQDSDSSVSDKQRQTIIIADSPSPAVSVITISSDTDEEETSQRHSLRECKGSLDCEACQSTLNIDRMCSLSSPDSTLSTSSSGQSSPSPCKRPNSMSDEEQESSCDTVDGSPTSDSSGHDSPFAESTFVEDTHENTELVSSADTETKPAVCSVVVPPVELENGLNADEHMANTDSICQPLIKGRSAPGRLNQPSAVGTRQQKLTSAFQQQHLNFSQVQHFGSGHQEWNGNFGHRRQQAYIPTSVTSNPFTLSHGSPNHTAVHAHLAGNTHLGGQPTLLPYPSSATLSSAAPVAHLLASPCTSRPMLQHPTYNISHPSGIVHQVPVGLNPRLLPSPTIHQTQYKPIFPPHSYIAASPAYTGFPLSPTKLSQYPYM
Chain of MAP kinase-interacting serine/threonine-protein kinase 2 (Q9HBH9 whole entry): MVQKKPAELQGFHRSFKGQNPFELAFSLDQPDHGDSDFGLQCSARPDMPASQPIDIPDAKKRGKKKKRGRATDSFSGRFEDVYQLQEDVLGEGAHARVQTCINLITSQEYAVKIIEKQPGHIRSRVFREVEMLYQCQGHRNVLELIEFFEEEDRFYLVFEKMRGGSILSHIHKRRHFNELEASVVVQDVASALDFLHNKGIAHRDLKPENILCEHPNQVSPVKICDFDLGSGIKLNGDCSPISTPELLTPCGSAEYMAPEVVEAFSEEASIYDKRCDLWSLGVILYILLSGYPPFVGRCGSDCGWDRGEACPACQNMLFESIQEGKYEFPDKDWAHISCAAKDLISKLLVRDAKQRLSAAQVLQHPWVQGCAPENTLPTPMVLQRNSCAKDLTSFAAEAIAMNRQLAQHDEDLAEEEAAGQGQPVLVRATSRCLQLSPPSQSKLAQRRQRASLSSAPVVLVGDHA
Chain of Mitogen-activated protein kinase kinase kinase 20 (Homo sapiens) (Q9NYL2 2-800 limits assumed): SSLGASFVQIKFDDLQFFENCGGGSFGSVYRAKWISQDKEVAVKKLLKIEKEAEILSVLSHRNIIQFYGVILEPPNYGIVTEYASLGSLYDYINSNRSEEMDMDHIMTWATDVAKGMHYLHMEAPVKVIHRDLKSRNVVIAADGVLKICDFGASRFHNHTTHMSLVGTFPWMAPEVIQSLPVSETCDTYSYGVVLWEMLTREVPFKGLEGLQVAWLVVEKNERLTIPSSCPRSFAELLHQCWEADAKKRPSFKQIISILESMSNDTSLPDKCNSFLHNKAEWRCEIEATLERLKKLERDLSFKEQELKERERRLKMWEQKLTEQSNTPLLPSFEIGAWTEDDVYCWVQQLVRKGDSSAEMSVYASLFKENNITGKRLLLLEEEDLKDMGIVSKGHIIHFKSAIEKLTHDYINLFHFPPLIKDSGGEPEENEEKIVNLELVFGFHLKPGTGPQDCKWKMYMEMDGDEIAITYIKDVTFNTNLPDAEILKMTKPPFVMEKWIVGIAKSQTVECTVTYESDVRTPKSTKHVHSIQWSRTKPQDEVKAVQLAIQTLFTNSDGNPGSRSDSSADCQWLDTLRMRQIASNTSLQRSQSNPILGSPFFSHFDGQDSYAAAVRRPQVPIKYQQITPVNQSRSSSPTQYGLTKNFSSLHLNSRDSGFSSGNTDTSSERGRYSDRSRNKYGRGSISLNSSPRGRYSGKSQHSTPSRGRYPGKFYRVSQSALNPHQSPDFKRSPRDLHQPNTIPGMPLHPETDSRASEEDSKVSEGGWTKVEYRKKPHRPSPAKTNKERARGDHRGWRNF
Chain of Protein arginine N-methyltransferase 5 (O14744 whole entry): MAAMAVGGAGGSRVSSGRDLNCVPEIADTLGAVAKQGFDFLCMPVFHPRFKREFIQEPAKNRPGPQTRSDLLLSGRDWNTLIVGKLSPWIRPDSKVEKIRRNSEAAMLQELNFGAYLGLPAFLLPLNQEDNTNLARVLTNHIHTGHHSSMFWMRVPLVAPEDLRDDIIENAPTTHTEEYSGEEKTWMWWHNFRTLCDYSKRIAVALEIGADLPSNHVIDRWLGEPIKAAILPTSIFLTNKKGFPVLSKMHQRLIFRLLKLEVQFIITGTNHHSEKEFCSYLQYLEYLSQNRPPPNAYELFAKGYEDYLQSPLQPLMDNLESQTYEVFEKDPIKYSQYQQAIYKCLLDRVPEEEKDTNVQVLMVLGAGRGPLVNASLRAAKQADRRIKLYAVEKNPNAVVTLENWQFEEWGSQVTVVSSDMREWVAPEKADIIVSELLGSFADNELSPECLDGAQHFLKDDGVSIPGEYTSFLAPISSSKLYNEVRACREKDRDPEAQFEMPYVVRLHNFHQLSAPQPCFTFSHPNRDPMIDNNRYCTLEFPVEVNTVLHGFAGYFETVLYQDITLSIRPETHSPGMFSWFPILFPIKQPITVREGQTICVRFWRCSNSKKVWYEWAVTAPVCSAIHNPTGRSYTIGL
Chain of D(2) dopamine receptor (P14416 whole entry): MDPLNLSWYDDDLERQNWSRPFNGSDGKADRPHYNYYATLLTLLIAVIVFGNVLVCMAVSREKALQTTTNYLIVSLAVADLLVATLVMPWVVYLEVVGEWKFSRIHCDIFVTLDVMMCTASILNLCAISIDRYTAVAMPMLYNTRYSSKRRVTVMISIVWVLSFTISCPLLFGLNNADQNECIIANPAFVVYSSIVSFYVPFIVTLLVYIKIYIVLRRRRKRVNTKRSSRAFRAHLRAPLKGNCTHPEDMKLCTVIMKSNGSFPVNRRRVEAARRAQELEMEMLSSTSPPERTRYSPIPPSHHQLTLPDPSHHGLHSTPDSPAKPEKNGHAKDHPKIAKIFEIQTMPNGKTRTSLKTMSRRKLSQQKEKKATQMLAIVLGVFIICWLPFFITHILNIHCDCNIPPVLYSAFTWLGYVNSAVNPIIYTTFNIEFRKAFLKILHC
Chain of Mitogen-activated protein kinase 14 (Q16539 whole entry): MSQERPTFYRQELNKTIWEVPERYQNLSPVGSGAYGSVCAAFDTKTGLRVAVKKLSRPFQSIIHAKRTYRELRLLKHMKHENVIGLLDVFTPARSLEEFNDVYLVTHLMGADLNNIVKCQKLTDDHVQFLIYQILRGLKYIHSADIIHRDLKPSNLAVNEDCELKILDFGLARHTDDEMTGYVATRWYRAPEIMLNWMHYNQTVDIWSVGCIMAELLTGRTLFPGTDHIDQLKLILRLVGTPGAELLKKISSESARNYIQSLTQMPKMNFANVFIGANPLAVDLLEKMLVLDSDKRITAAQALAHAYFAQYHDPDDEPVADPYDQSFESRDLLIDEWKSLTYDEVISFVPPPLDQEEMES

In [1], `Cn1cc(-n2cnc3c(NCc4nc5cc(Cl)c(Cl)cc5[nH]4)nc(N4CCOCC4)nc32)cn1` displayed a % of control of 0.629%.
As to `Cc1cc(C)cc([C@@H]2c3cc(C)ccc3NC(=O)CN2C(=O)c2ccc(Br)s2)c1`, the % of inhibition in assay [2] was -20%.
`CNCCN1CCC(c2cc(CN(C)C(=O)c3cccc(Oc4ccccc4)c3)ccn2)CC1`: the % activity in [3] was above 90%.
As for `CCn1c(-c2nc3cc(C(=O)N4CCCC(N)C4)ccc3n2C)cc2ccccc21` (centres undefined), the pXC50 on D(2) dopamine receptor amounted to 4.5 M.
Take `CC[C@@H]1[C@H](F)C(=O)N[C@@H]1COc1nccc2cc(C(N)=O)c(OC)cc12` [ZIMLOVISERTIB]: the % of inhibition was 18.3% in [4]; 6.6% in [5] (at 0.01 µM); -1.6% in assay [5] (at 0.04 µM); 6.9% in assay [5] (at 0.2 µM); 12.9% in assay [5] (at 1 µM); 41.7% in [5] (at 5 µM). The % of inhibition in assay [6] worked out at 6.4%.
With `CCc1cccc(CC)c1NC(=O)c1nn(C)c2c1CCc1cnc(Nc3ccc(C(=O)NC4CCN(C)CC4)cc3OC(F)(F)F)nc1-2`, the IC50 in assay [7] was above 10 µM.
The molecule `COc1cc(Nc2nc(C)cc(-c3cnn4nc(OC)ccc34)n2)cc(C(F)(F)F)c1` registered a % of control in [8] of 89%.
As to `Cc1cc(F)c(C(=O)Nc2cccc(-c3nncn3C(C)C)n2)cc1-n1cnc(C2CC2)c1`, the % of control in assay [9] is 79%.
On to `C=CC(=O)Nc1cccc(C(=O)Nc2ccc(Nc3cc(-c4[nH]c(SC)nc4C)ccn3)cc2)c1`, for which the % of control in [10] (at 1 µM) is 95%; in [10] (at 5 µM) it was 67%.
In the case of `O[C@H]1CC[C@H](Nc2ncc3nc(Nc4c(F)cc(F)cc4F)n([C@H]4CCOC4)c3n2)CC1`, the % of control worked out at 24% in assay [11] and 100% in assay [12].
Take `Cc1ccc(-c2ccc3c(ccc4sc5c(c43)NC[C@@H](C)NC5=O)n2)cn1`: the % of inhibition in [13] is -11%.

Source of the values: ChEMBL document CHEMBL5465560, “Selectivity Literature for EUbOPEN Chemogenomic Library” (2024).
